# Patent US6310093A (priority 1998, dated 2001)
# Positions count from the first letter of the chain named. Values joined by “and” are separate entries in the source; they are usually repeats but may differ in a detail not shown here. Equal entries are not always repeated. Where two headings read alike, the source gives them in different places.
# Assays:
# [1] = tested on: neuronal cells in culture
# glutaminase = conditions: cited from earlier work
# [2] = Kaneko et al. 1992; cited from earlier work
# [3] = molecular target: T1, glutaminase in damaged neurons (Mus musculus, UniProt D3Z7P3)
# T1 sequence (D3Z7P3 73-674 limits assumed): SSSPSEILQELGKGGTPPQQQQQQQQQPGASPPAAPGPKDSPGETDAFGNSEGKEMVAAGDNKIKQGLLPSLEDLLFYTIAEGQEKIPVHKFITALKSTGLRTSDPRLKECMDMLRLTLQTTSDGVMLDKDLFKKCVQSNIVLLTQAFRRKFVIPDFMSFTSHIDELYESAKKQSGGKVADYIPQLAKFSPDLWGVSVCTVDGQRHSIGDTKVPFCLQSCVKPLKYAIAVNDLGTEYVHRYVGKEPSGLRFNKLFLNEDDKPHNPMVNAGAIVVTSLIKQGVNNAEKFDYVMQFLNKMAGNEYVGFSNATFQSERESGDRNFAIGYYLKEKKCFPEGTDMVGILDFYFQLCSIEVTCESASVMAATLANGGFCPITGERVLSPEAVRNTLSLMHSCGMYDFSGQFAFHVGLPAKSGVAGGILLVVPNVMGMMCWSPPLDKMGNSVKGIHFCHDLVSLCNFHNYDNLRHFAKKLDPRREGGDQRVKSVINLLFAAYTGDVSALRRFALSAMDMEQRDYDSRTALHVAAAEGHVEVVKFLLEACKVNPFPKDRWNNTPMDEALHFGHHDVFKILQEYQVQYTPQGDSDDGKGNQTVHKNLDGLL
# [4] = Huber; cited from earlier work
# [5] = tested on: hippocampal slices (field potential)
# [6] = molecular target: T2, glutaminase in live (intact) neurons (Mus musculus, UniProt D3Z7P3); type: cell-based, mouse (Swiss Webster)
# T2 sequence (D3Z7P3 55-674): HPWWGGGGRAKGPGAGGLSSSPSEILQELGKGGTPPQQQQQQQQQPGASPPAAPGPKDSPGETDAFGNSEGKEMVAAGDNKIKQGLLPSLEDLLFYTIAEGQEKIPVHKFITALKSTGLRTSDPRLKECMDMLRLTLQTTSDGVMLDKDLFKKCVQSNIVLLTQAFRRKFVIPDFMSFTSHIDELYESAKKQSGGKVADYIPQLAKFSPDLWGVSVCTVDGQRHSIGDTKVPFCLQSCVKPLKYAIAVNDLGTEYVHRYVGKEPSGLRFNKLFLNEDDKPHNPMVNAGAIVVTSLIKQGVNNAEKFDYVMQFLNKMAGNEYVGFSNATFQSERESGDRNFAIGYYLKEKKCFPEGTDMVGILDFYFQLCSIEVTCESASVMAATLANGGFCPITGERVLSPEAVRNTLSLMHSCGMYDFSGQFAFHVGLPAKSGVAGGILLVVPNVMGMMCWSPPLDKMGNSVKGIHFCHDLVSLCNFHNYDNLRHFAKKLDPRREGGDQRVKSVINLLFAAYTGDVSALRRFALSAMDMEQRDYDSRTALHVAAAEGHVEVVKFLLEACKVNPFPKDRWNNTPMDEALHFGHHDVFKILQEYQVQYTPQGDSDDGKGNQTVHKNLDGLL
# [7] = tested on: glial cultures (astrocytes); conditions: Hertz; Drejer; read-out: Km for cellular uptake of glutamate; cited from earlier work
# [8] = molecular target: T3, glutaminase (brain membranes) (Rattus norvegicus, UniProt P13264); experiment: biochemical
# T3 construct: Membranes are prepared by homogenization of brain tissue in 330 mM sucrose; from tissue; host or cells: rat brain, crude membranes (17000 G pellet)
# T3 sequence (P13264 73-674 limits assumed): T1 sequence (D3Z7P3 73-674 limits assumed) with I64V, G590E
# [9] = tested on: glial cultures (astrocytes); type: cell-based, mouse (Swiss Webster)
# [10] = tested on: mixed glial-neuronal cultures; experiment: Glutamate uptake (clearance) by mixed glial-neuronal cultures; type: cell-based, mouse (Swiss Webster)
# Experimental: (§1) This allows expression of medium glutamate concentrations as:
# (§2) where [Glu], in units of μM, is the concentration of glutamate in the 0.4 ml of medium in a culture well, S (in μM/min) is the rate of addition of glutamate to the culture medium from cellular sources, and k (in min^-1) is the empirically determined rate constant for clearance (Roberts). […] Although the value of k is proportional to cell (carrier) density, little variation is expected in cultures containing glia, as glial cultures are confluent.
# as §2, with “(Roberts, D. V. (1977) Enzyme Kinetics, Cambridge University Press, Cambridge, pp23-30.).” for “(Roberts).”, “glia” for “glia,”
# isolated neurons = conditions: Rosenberg; Dugan et al., 1995; read-out: IC50 for toxicity of glutamate on isolated neurons; cited from earlier work
# neuronal cultures = experiment: Glutamate uptake (clearance) by neuronal cultures; type: cell-based, mouse (Swiss Webster); conditions: intact neurons
# Experimental: as §1, §2
# as §2, with “(Roberts, D. V. (1977) Enzyme Kinetics, Cambridge University Press, Cambridge, pp23-30.).” for “(Roberts).”, “glia” for “glia,”
# [11] = tested on: mixed neuronal-astrocyte cultures; experiment: cells; conditions: Mus musculus, 24 h, read-out: % cell death (LDH)
# [12] = tested on: neuronal cells in culture; experiment: cells; conditions: Mus musculus, read-out: LDH release by NMDA exposure relative to freeze-thaw
# [13] = tested on: mixed neuronal-astrocyte cultures
# [14] = tested on: pure neuronal cultures (cortical neurons) exposed to glutamine
# [15] = tested on: ischemic penumbra (dialysate glutamate); experiment: In vivo microdialysis of ischemic penumbra after MCAO; parameters: species or system rat; conditions: subsequent perfusion of phosphate; ±400%
# Experimental: In further microdialysis experiments, exogenous glutamine was added to the ischemic penumbra via the probe, and dialysis glutamate was measured, as described in Example 7. When 10 mM glutamine plus 20 mM sodium phosphate were perfused into the penumbra for one hour, dialysate glutamate was elevated 315% as compared to control (±115%). […] The effects on glutamate were much more pronounced than on other amino acids measured; therefore, these studies provided further support for the involvement of extracellular glutaminase activity in producing the elevated levels of glutamate in cortical tissue undergoing ischemic damage.
# The middle cerebral arteries of rats were occluded as in EXAMPLE 7, and the rats were returned to their cages overnight. The next morning, dialysis probes ([…], 2 mm length, 20,000 dalton cutoff) were inserted into ischemic penumbra (cortex) and perfused with artificial CSF at 3 μl/min for 1 h prior to collection of 10 minute fractions of dialysate. The effectiveness of the occlusion and the placement of probes were verified by TTC staining of 1 mm sections at the conclusion of the experiment. Amino acids in the dialysate were measured by reverse phase HPLC with fluorescence detection, after derivatization of the dialysates with o-phthaldialdehyde and N-acetyl-L-cysteine […]
# [16] = 7 h hypoxia, 2 mM Gln + 30 uM pCMPS
structure (smiles),measurement,setting,value
"N[C@@H](CC(=O)CCl)C(=O)O [Chloroketone, L-2-amino-4-oxo-5-chloropentanoic acid]",LDH release from neuronal cells (in words),[1],"resulted in release of lactate dehydrogenase from the cells, indicating cellular toxicity and death"
same,"glutaminase inhibition (literature, in words)",glutaminase,only weak (mM) inhibitors
"[N-]=[N+]=CC(=O)CC[C@H](N)C(=O)O [DON, 6-diazo-5-oxo-L-norleucine]",toxicity and tissue penetration after CNS administration (in words),[2],toxicity and poor tissue penetration
same,LDH release from neuronal cells (in words),[1],"resulted in release of lactate dehydrogenase from the cells, indicating cellular toxicity and death"
same,inhibition of glutamate production,[3],90% and 50%
same,inhibition of glutaminase activity in damaged cells (in words),[3],inhibit glutaminase activity in damaged cells
same,crossing of cell membranes (in words),[4],readily cross cell membranes
same,effect on hippocampal field potential (in words),[5],decreased the magnitude and prolonged the duration of the field potential
same,effect on glutaminase activity of intact/live neurons (in words),[6],inhibition of glutaminase
same,glutamate production after neuronal death,[6],0.23 ± 0.03 μM Glu/min and 0.15 ± 0.02 μM Glu/min
N[C@@H](CCC(=O)O)C(=O)O [L-glutamic acid],Km,[7],~45 µM
same,glutaminase inhibition (in words),[8],no significant effect on enzyme activity at 3.3 mM
same,activity at 1000 µM,[8]; read-out: Glutaminase Activity,105 ± 15%
same,activity at 3300 µM,[8]; read-out: Glutaminase Activity,113 ± 32%
same,Glutamate uptake (k),[9],0.083
same,first order rate constant for glutamate uptake,[9],0.083 min⁻¹
same,glutamate uptake rate of glial vs neuronal cultures,[9],about 7 times
same,first order rate constant for glutamate uptake,[10]; 15 μM glutamate,0.072 min⁻¹
same,Glutamate uptake (k),"[10]; Table 2, glial-neuronal",0.072
same,IC50,isolated neurons,5 to 10 µM
same,Glutamate uptake (k),neuronal cultures,0.012 min⁻¹
"CN[C@H](CC(=O)O)C(=O)O [NMDA, N-methyl-D-aspartate]",cytotoxicity at 500 µM,[11],100%
same,cytotoxicity at 500 µM,[12],~85%
same,Glu,[13],7.0 ± 0.6
N[C@H](C(=O)O)[C@@H]1CC(Cl)=NO1 [acivicin],effect on glutamine hydrolysis by damaged neurons (in words),[3],no effect on glutamine hydrolysis
same,crossing of cell membranes (in words),[4],readily cross cell membranes
same,"glutaminase inhibition (literature, in words)",glutaminase,do not inhibit glutaminase
[N-]=[N+]=CC(=O)OC[C@H](N)C(=O)O [azaserine],"glutaminase inhibition (literature, in words)",glutaminase,do not inhibit glutaminase
NNC(=O)CCC(N)C(=O)O (stereo not shown) [glutamate-γ-hydrazide],effect on glutamine hydrolysis by damaged neurons (in words),[3],no effect on glutamine hydrolysis
"O=S(=O)(O)c1cc[c]([Hg][Cl])cc1 [pCMPS, p-(chloromercuri)phenyl sulfonic acid]",LDH release from control cultures (in words),[1]; 30 μM,did not cause LDH release from control cultures
same,glial uptake of glutamate (in words),[9]; at much higher concentrations than inhibition of exposed glutaminase,blocks glial uptake of glutamate
same,concentration required to inhibit glutaminase,[3],10 to 30 µM
same,inhibition of glutamine hydrolysis by NMDA-damaged neurons (in words),[3]; 30 μM,almost completely inhibited
same,glutamate generation by NMDA-damaged neurons (in words),[3]; 600 μM,completely abolished glutamate generation
same,LDH release caused by glutamine exposure (in words),[14],prevented the release of LDH
same,medium glutamate,[14],10.3 ± 4 μM Glu
same,neuronal morphology (in words),[14],neurons retained their normal appearance after 24 h
same,neuroprotection (in words),[14],protected pure neuronal cultures from neuronal damage caused by exposure to glutamine
same,neuronal LDH release,"[14]; mouse, pure neuronal cultures, 24 h, 30 µM",17 ± 10.5
same,effect on hippocampal field potential (in words),"[5]; 120 μM, 60 min perfusion",no effect on the field potential
same,effect on glutaminase activity of intact/live neurons (in words),[6],lack of effect
same,effect on medium glutamate and release of LDH in hypoxic mixed cultures (in words),"[13]; 30 μM pCMPS, 2 mM glutamine, hypoxia 7h",lowered medium glutamate and release of LDH
same,medium glutamate,[13]; [16],1.45 ± 1.0 μM Glu
same,neuronal LDH release,[13]; [16],38.5 ± 8.1%
"O=P(O)(O)O [phosphate, sodium phosphate]","dialysate glutamate, % of control",[15],845 % of control
same,increase of glutamate generation,"[3]; mixed neuronal-glial cultures, 20000 µM",8 fold
